From US12478585B2, “Micelles and vesicles for the delivery of glycopeptides” (ARIZONA BOARD OF REGENTS ON BEHALF OF THE UNIVERSITY OF …, priority 2017, dated 2025)

Assay: not given
Conditions: literature; cited from earlier work

SMILES	a0 [Lit.] (headgroup area)
CCCCCCCCCCOC1O[C@H](CO)[C@@H](O[C@@H]2O[C@H](CO)[C@@H](O)[C@H](O)[C@H]2O)[C@H](O)[C@H]1O (some centres unmarked) [Decyl Cellobioside]	50 Å^2
CCCCCCCCCCO[C@@H]1O[C@H](CO)[C@@H](O)[C@H](O)[C@H]1O [Decyl Glucoside]	42 Å^2
CCCCCCCCCCOC1O[C@H](CO[C@H]2O[C@H](CO)[C@H](O)[C@H](O)[C@H]2O)[C@@H](O)[C@H](O)[C@H]1O (some centres unmarked) [Decyl Melibioside]	68 Å^2
CCCCCCCCCCCCOC1O[C@H](CO)[C@@H](O[C@@H]2O[C@H](CO)[C@@H](O)[C@H](O)[C@H]2O)[C@H](O)[C@H]1O (some centres unmarked) [Dodecyl Cellobioside]	49 Å^2
CCCCCCCCCCCCO[C@@H]1O[C@H](CO)[C@@H](O)[C@H](O)[C@H]1O [Dodecyl Glucoside]	34 Å^2
CCCCCCCCCCCCOC1O[C@H](CO[C@H]2O[C@H](CO)[C@H](O)[C@H](O)[C@H]2O)[C@@H](O)[C@H](O)[C@H]1O (some centres unmarked) [Dodecyl Melibioside]	51 Å^2
CCCCCCCCOC1O[C@H](CO)[C@@H](O[C@@H]2O[C@H](CO)[C@@H](O)[C@H](O)[C@H]2O)[C@H](O)[C@H]1O (some centres unmarked) [Octyl Cellobioside]	50 Å^2
CCCCCCCCO[C@@H]1O[C@H](CO)[C@@H](O)[C@H](O)[C@H]1O [Octyl Glucoside]	42 Å^2
CCCCCCCCOC1O[C@H](CO[C@H]2O[C@H](CO)[C@H](O)[C@H](O)[C@H]2O)[C@@H](O)[C@H](O)[C@H]1O (some centres unmarked) [Octyl Melibioside]	73 Å^2
CCCCCCCCCCCCOS(=O)(=O)[O-].[Na+] [SDS, reference compound]	61 Å^2

Assay: Aggregate radius and aggregation number (Nagg) from DOSY diffusion data (Stokes-Einstein, spherical model)
Type: physicochemical
Conditions: D2O, at 5 mM
Experimental: The Stokes-Einstein equation provided estimated aggregate radii from the recorded diffusion coefficients. Further, Tanford's equations: lc≤lmax≈(0.154+0.1265n)nm and v≈(27.4+26.9n)×[…] nm^3 were used to calculate the critical volume (v) and maximum length (lmax) of the hydrocarbon tail based on the length of the lipid tail, n. Energy-minimized structures in MOE® were measured to find critical length (lc) values.
The average micelle radius (r) was calculated for each concentration of the surfactants (FIG. 9). Using molecular volume (V) calculations from MOE®, a spherical model was used to estimate aggregation numbers (Nagg) for each sample (FIG. 10). In general, these values correspond well to values determined by fluorescence quenching experiments. For samples such as decyl glucoside and dodecyl melibioside, Nagg values greater than 200 are representative of both the fact that larger aggregates will form at high concentrations, and that D2O (and 0.9% NaCl in H2O) induces the formation of higher order structures. Dodecyl melibioside is an example, where previous fluorescence quenching experiments show Nagg averages at 65 in concentrations over 20 mM. For these DOSY experiments Nagg is above 300 at only 5 mM, […], and more likely describing rod-like aggregates.

Nagg (aggregation number)	SMILES
above 300	CCCCCCCCCCCCOC1O[C@H](CO[C@H]2O[C@H](CO)[C@H](O)[C@H](O)[C@H]2O)[C@@H](O)[C@H](O)[C@H]1O (some centres unmarked) [Dodecyl Melibioside]

Same assay, conditions: D2O, samples containing precipitate

radius of "large" aggregates	radius of "small" aggregates	SMILES
90 Å	40 Å	CCCCCCCCCCO[C@@H]1O[C@H](CO)[C@@H](O)[C@H](O)[C@H]1O [Decyl Glucoside]

Assay: not given
Conditions: Table 2, marked (lit); cited from earlier work

SMILES	CMC, Surface Tens. (lit)
CCCCCCCCCCO[C@@H]1O[C@H](CO)[C@@H](O)[C@H](O)[C@H]1O [Decyl Glucoside]	2.2 mM
CCCCCCCCO[C@@H]1O[C@H](CO)[C@@H](O)[C@H](O)[C@H]1O [Octyl Glucoside]	20 mM
CCCCCCCCCCCCOS(=O)(=O)[O-].[Na+] [SDS, reference compound]	8.2 mM

Assay: not given
Conditions: previous fluorescence quenching experiments, concentrations over 20 mM; cited from earlier work

SMILES	Nagg average (aggregation number)
CCCCCCCCCCCCOC1O[C@H](CO[C@H]2O[C@H](CO)[C@H](O)[C@H](O)[C@H]2O)[C@@H](O)[C@H](O)[C@H]1O (some centres unmarked) [Dodecyl Melibioside]	65

Assay: CMC determination by DOSY NMR (diffusion coefficients vs inverse concentration, linear regression)
Type: physicochemical
Conditions: DOSY, in D2O, Table 1
Experimental: Sample solutions were transferred (500 μL) to 5 mm NMR tubes for automated analysis via Bruker 400 MHz spectrometer. Gradient pulse strengths and delays were standardized for all experiments, with a pulse interval (δ) of 3 ms and diffusion interval (Δ) of 200 ms; these values were experimentally determined to ensure the arrayed diffusion data would provide a reasonable curve for accurate Dc determination.
Stacked data arrays were processed in MestReNova® by setting the appropriate value “k” standardized to known self-diffusion coefficients of the bulk solvent, then applying Bayesian DOSY transform to yield pseudo-2D spectra containing the ^1H NMR spectrum vs diffusion coefficients. Averaged values for samples at each concentration were plotted vs. the inverse concentration. Data points from monomeric and aggregated samples were identified by the first signs of decreasing Dc, and linear regression of the two sets provided an intercept estimated as the CMC. Slope and intercept errors were used to calculate error.
Linear regression of the data sets, i.e. monomers and aggregates, provided an intercept estimated as the CMC. […] CMC's decreased approximately a full order of magnitude when the hydrocarbon chain length increased by two methylene groups as described previously.

SMILES	CMC
CCCCCCCCCCOC1O[C@H](CO)[C@@H](O[C@@H]2O[C@H](CO)[C@@H](O)[C@H](O)[C@H]2O)[C@H](O)[C@H]1O (some centres unmarked) [Decyl Cellobioside]	1.8 ± 0.3 mM
CCCCCCCCCCOC1O[C@H](CO[C@H]2O[C@H](CO)[C@H](O)[C@H](O)[C@H]2O)[C@@H](O)[C@H](O)[C@H]1O (some centres unmarked) [Decyl Melibioside]	3.9 ± 0.1 mM
CCCCCCCCOC1O[C@H](CO)[C@@H](O[C@@H]2O[C@H](CO)[C@@H](O)[C@H](O)[C@H]2O)[C@H](O)[C@H]1O (some centres unmarked) [Octyl Cellobioside]	19.7 ± 2.2 mM
CCCCCCCCO[C@@H]1O[C@H](CO)[C@@H](O)[C@H](O)[C@H]1O [Octyl Glucoside]	22.5 ± 2.4 mM
CCCCCCCCOC1O[C@H](CO[C@H]2O[C@H](CO)[C@H](O)[C@H](O)[C@H]2O)[C@@H](O)[C@H](O)[C@H]1O (some centres unmarked) [Octyl Melibioside]	39.9 ± 5.2 mM

Next, values leading:

CMC	SMILES
1.9 ± 0.9 mM	CCCCCCCCCCO[C@@H]1O[C@H](CO)[C@@H](O)[C@H](O)[C@H]1O [Decyl Glucoside]
0.3 ± 0.00 mM	CCCCCCCCCCCCOC1O[C@H](CO[C@H]2O[C@H](CO)[C@H](O)[C@H](O)[C@H]2O)[C@@H](O)[C@H](O)[C@H]1O (some centres unmarked) [Dodecyl Melibioside]
8.5 ± 1.7 mM	CCCCCCCCCCCCOS(=O)(=O)[O-].[Na+] [SDS, reference compound]

Same assay, conditions: Table 2

SMILES	CMC, DOSY (Diffusion Coefficients)
CCCCCCCCCCOC1O[C@H](CO)[C@@H](O[C@@H]2O[C@H](CO)[C@@H](O)[C@H](O)[C@H]2O)[C@H](O)[C@H]1O (some centres unmarked) [Decyl Cellobioside]	2.2 ± 0.7 mM
CCCCCCCCCCOC1O[C@H](CO[C@H]2O[C@H](CO)[C@H](O)[C@H](O)[C@H]2O)[C@@H](O)[C@H](O)[C@H]1O (some centres unmarked) [Decyl Melibioside]	3.9 ± 0.1 mM
CCCCCCCCOC1O[C@H](CO)[C@@H](O[C@@H]2O[C@H](CO)[C@@H](O)[C@H](O)[C@H]2O)[C@H](O)[C@H]1O (some centres unmarked) [Octyl Cellobioside]	21 ± 2 mM
CCCCCCCCO[C@@H]1O[C@H](CO)[C@@H](O)[C@H](O)[C@H]1O [Octyl Glucoside]	20 ± 3 mM
CCCCCCCCOC1O[C@H](CO[C@H]2O[C@H](CO)[C@H](O)[C@H](O)[C@H]2O)[C@@H](O)[C@H](O)[C@H]1O (some centres unmarked) [Octyl Melibioside]	40 ± 5 mM

Next, values leading:

CMC, DOSY (Diffusion Coefficients)	SMILES
2.1 ± 0.7 mM	CCCCCCCCCCO[C@@H]1O[C@H](CO)[C@@H](O)[C@H](O)[C@H]1O [Decyl Glucoside]
0.29 ± 0.4 mM	CCCCCCCCCCCCOC1O[C@H](CO)[C@@H](O[C@@H]2O[C@H](CO)[C@@H](O)[C@H](O)[C@H]2O)[C@H](O)[C@H]1O (some centres unmarked) [Dodecyl Cellobioside]
0.31 ± 0.005 mM	CCCCCCCCCCCCOC1O[C@H](CO[C@H]2O[C@H](CO)[C@H](O)[C@H](O)[C@H]2O)[C@@H](O)[C@H](O)[C@H]1O (some centres unmarked) [Dodecyl Melibioside]
8.4 ± 2 mM	CCCCCCCCCCCCOS(=O)(=O)[O-].[Na+] [SDS, reference compound]

Assay: Solubility/precipitation behaviour in D2O, 0.9% NaCl and buffers
Conditions: not given

SMILES	solubility / precipitation
CCCCCCCCCCCCO[C@@H]1O[C@H](CO)[C@@H](O)[C@H](O)[C@H]1O [Dodecyl Glucoside]	remained insoluble

Assay: CMC by surface tensiometry
Type: physicochemical
Conditions: Table 2
Source text: CMC measurements from DOSY experiments agree with previously reported surface tensiometry data for melibiosides and cellobiosides, as well as literature values for the glucosides.

SMILES	CMC, Surface Tens.
CCCCCCCCCCOC1O[C@H](CO)[C@@H](O[C@@H]2O[C@H](CO)[C@@H](O)[C@H](O)[C@H]2O)[C@H](O)[C@H]1O (some centres unmarked) [Decyl Cellobioside]	1.8 ± 0.2 mM
CCCCCCCCCCOC1O[C@H](CO[C@H]2O[C@H](CO)[C@H](O)[C@H](O)[C@H]2O)[C@@H](O)[C@H](O)[C@H]1O (some centres unmarked) [Decyl Melibioside]	3.3 ± 0.2 mM
CCCCCCCCOC1O[C@H](CO)[C@@H](O[C@@H]2O[C@H](CO)[C@@H](O)[C@H](O)[C@H]2O)[C@H](O)[C@H]1O (some centres unmarked) [Octyl Cellobioside]	19 ± 3 mM
CCCCCCCCOC1O[C@H](CO[C@H]2O[C@H](CO)[C@H](O)[C@H](O)[C@H]2O)[C@@H](O)[C@H](O)[C@H]1O (some centres unmarked) [Octyl Melibioside]	44 ± 5 mM

More lines, now with the values ahead:

CMC, Surface Tens.	SMILES
0.18 ± 0.01 mM	CCCCCCCCCCCCOC1O[C@H](CO)[C@@H](O[C@@H]2O[C@H](CO)[C@@H](O)[C@H](O)[C@H]2O)[C@H](O)[C@H]1O (some centres unmarked) [Dodecyl Cellobioside]
0.30 ± 0.02 mM	CCCCCCCCCCCCOC1O[C@H](CO[C@H]2O[C@H](CO)[C@H](O)[C@H](O)[C@H]2O)[C@@H](O)[C@H](O)[C@H]1O (some centres unmarked) [Dodecyl Melibioside]
